Results from patent US20250099474A1 (priority 2022, published 2025).

How the values were obtained:
SARS-CoV-2 [1] = test: Phase 2/3 study, Phase 2a Part: SARS-CoV-2 virus titer; assay type: in vivo, human; conditions: for Change from baseline in SARS-CoV-2 virus titer compared to placebo group: mITT, significance level 0.05
Procedure: The primary endpoint of Phase 2a Part was the change from baseline in SARS-CoV-2 virus titer at each time point in common among mild/moderate and asymptomatic SARS-CoV-2-infected patients, and the antiviral effect of the active drug was confirmed.
(§1) The administration of the active drug is repeated oral administration once a day for 5 days. The 375/125 mg group received 375 mg on Day 1 as a loading dose and 125 mg on Days 2 to 5 as a maintenance dose. The 750/250 mg group received 750 mg on Day 1 as a loading dose and 250 mg on Days 2 to 5 as a maintenance dose.
The primary efficacy endpoint of Phase 2a Part was the change from baseline in SARS-CoV-2 virus titer at each time point in common among mild/moderate and asymptomatic SARS-CoV-2-infected patients. It was defined as an absolute change from baseline in observed value of SARS-CoV-2 virus titer at each time point.
For each population of the mild/moderate SARS-CoV-2-infected patients, the asymptomatic SARS-CoV-2-infected patients, and the merged population thereof, summary statistics of the change from baseline in SARS-CoV-2 virus titer at each time point were calculated for the mITT population. Furthermore, a van Elteren test was applied to a combined population of mild/moderate and asymptomatic SARS-CoV-2-infected patients. Pairwise comparisons were made between each active drug dose group and the placebo group for SARS-CoV-2 virus titer at each time point at a two-sided significance level of 5%. The population of the mild/moderate SARS-CoV-2-infected patients and the population of the asymptomatic SARS-CoV-2-infected patients were used as strata in the van Elteren test.
In addition, when the virus titer was less than the lower detection limit (0.8 log10 (TCID50/mL)), the value of the virus titer was handled as 0.8 log10 (TCID50/mL). […] In the RT-PCR measurement results and the virus titer measurement results that were available by the time point of Jan.

SARS-CoV-2 [2] = conditions: mouse, in vivo
[3] = monkey, in vivo
SARS-CoV-2 [4] = test: Phase 2/3 study, Phase 2b Part: SARS-CoV-2 virus titer on Day 4; assay type: in vivo, human; conditions: for Change from baseline in SARS-CoV-2 virus titer on Day 4: Adjusted mean value by covariance analysis (standard error) / Change from baseline in SARS-CoV-2 virus titer on Day 4: Difference of adjusted mean value from that of placebo group (standard error) / Change from baseline in SARS-CoV-2 virus titer on Day 4: Maximum value / Change from baseline in SARS-CoV-2 virus titer on Day 4: Mean value / Change from baseline in SARS-CoV-2 virus titer on Day 4: Median value / Change from baseline in SARS-CoV-2 virus titer on Day 4: Minimum value: mild/moderate patients, ITT1 population
Procedure: The primary endpoints of Phase 2b Part were the time-weighted average change in the total score of 12 COVID-19 symptoms per unit time from the start of the first administration (Day 1) to 120 hours (Day 6), and the change from baseline in SARS-CoV-2 virus titer on Day 4, in mild/moderate SARS-CoV-2-infected patients, and the clinical improvement and the antiviral effect of the active drug were confirmed.
as §1
The primary efficacy endpoints of Phase 2b Part for mild/moderate SARS-CoV-2-infected patients were the time-weighted average change in the total score of 12 COVID-19 symptoms per unit time from the start of the first administration (Day 1) to 120 hours (Day 6), and the change from baseline in SARS-CoV-2 virus titer on Day 4. The total score of 12 COVID-19 symptoms is the sum of the scores determined by evaluation in four grades (0: none, 1: mild, 2: moderate, 3: severe) in the subject daily records for each of the 12 COVID-19 symptoms (low energy and tiredness, muscle or body aches, headache, chills or shivering, feeling hot or feverish, stuffy and runny nose, sore throat, cough, shortness of breath (difficulty breathing), nausea, vomiting, diarrhea).
Pairwise comparison was performed between each active drug dose group and the placebo group. […] Pairwise comparison was performed between each active drug dose group and the placebo group.

Cn1cnc(Cn2c(=O)[nH]/c(=N\c3cc4cn(C)nc4cc3Cl)n(Cc3cc(F)c(F)cc3F)c2=O)n1 [(6E)-6-[(6-chloro-2-methyl-2H-indazol-5-yl)imino]-3-[(1-methyl-1H-1,2,4-triazol-3-yl)methyl]-1-[(2,4,5-trifluorophenyl)methyl]-1,3,5-triazinane-2,4-dione]
Decrease of proportion of patients with a positive virus titer of 0.8 or more, with respect to placebo group (SARS-CoV-2 [1]; Day 4, 375/125 mg group): 63%
Decrease of proportion of patients with a positive virus titer of 0.8 or more, with respect to placebo group (SARS-CoV-2 [1]; Day 4, 750/250 mg group): 80%
Decrease of proportion of patients with a positive virus titer of 0.8 or more, with respect to placebo group (SARS-CoV-2 [1]; Day 6, 375/125 mg group): 100%
Decrease of proportion of patients with a positive virus titer of 0.8 or more, with respect to placebo group (SARS-CoV-2 [1]; Day 6, 750/250 mg group): 54%
Change from baseline in SARS-CoV-2 virus titer compared to placebo group (SARS-CoV-2 [1]; 375/125 mg group, Visit 3 (Day 4)): statistically significantly decreased
Change from baseline in SARS-CoV-2 virus titer compared to placebo group (SARS-CoV-2 [1]; 750/250 mg group, Visit 2 (Day 2) and Visit 3 (Day 4)): statistically significantly decreased
SARS-CoV-2 virus titer compared to placebo group (SARS-CoV-2 [1]; results available by Jan. 17, 2022, 375/125 mg group, all time points after Visit 3 (Day 4)): tendency for the virus titer to decrease
SARS-CoV-2 virus titer compared to placebo group (SARS-CoV-2 [1]; results available by Jan. 17, 2022, 750/250 mg group, all time points after Visit 2 (Day 2)): tendency for the virus titer to decrease
maximum plasma concentration (Cmax) in humans that reduces the virus titer by 2 log (SARS-CoV-2 [2]): 14.1 μg/mL
maximum plasma concentration (Cmax) in humans that reduces the virus titer by 3 log (SARS-CoV-2 [2]): 23.0 μg/mL
NOAEL (plasma concentration) [3]: 75.2 to 77.6 µg/mL
Proportion of patients with a positive virus titer of 1.1 or more on Day 4 (SARS-CoV-2 [4]; 375/125 mg group): 1.9%
SARS-CoV-2 virus titer on Day 4 as compared with the placebo group (SARS-CoV-2 [4]; 375/125 mg group and 750/250 mg group, p<0.0001): statistically significantly reduced
Proportion of patients with a positive virus titer of 1.1 or more on Day 4 (SARS-CoV-2 [4]; 750/250 mg group): 5.4%
Change from baseline in SARS-CoV-2 virus titer on Day 4: Adjusted mean value by covariance analysis (standard error) (SARS-CoV-2 [4]; 375/125 mg group): −1.49 (0.04)
Change from baseline in SARS-CoV-2 virus titer on Day 4: Difference of adjusted mean value from that of placebo group (standard error) (SARS-CoV-2 [4]; 375/125 mg group): −0.41 (0.05)
Change from baseline in SARS-CoV-2 virus titer on Day 4: Maximum value (SARS-CoV-2 [4]; 375/125 mg group): 0.0
Change from baseline in SARS-CoV-2 virus titer on Day 4: Mean value (SARS-CoV-2 [4]; 375/125 mg group): −1.69
Change from baseline in SARS-CoV-2 virus titer on Day 4: Median value (SARS-CoV-2 [4]; 375/125 mg group): −1.70
Change from baseline in SARS-CoV-2 virus titer on Day 4: Minimum value (SARS-CoV-2 [4]; 375/125 mg group): −3.7
Change from baseline in SARS-CoV-2 virus titer on Day 4: Adjusted mean value by covariance analysis (standard error) (SARS-CoV-2 [4]; 750/250 mg group): −1.49 (0.04)
Change from baseline in SARS-CoV-2 virus titer on Day 4: Difference of adjusted mean value from that of placebo group (standard error) (SARS-CoV-2 [4]; 750/250 mg group): −0.41 (0.05)
Change from baseline in SARS-CoV-2 virus titer on Day 4: Maximum value (SARS-CoV-2 [4]; 750/250 mg group): 0.0
Change from baseline in SARS-CoV-2 virus titer on Day 4: Mean value (SARS-CoV-2 [4]; 750/250 mg group): −1.43
Change from baseline in SARS-CoV-2 virus titer on Day 4: Median value (SARS-CoV-2 [4]; 750/250 mg group): −1.40
Change from baseline in SARS-CoV-2 virus titer on Day 4: Minimum value (SARS-CoV-2 [4]; 750/250 mg group): −3.4
